Source: publication PMC8301926 (Biomolecules, 2021)
Where “and” joins values, the source holds several entries; their conditions need not be identical. Identical values can stand only once.

Experiments:
[1] = target: T1, recombinant human monoamine oxidase A (hMAO-A) (Homo sapiens, UniProt P21397); assay: hMAO-A inhibition, MAO-Glo chemiluminescent assay; assay type: biochemical
T1 sequence (P21397 1-527): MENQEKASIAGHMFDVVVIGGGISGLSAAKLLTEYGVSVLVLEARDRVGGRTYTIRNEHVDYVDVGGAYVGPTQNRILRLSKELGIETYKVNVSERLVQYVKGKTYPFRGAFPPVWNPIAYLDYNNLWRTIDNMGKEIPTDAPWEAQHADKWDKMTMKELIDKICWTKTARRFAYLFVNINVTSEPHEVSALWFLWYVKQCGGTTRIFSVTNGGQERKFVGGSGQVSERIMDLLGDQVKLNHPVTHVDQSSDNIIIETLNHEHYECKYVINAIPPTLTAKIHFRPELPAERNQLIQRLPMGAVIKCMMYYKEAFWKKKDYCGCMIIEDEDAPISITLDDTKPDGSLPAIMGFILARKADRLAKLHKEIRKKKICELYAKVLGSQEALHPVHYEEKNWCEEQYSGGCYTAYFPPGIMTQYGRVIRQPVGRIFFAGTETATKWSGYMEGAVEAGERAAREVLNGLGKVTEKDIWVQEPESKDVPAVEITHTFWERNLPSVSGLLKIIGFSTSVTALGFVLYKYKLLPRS

[2] = target: T2, recombinant human monoamine oxidase B (hMAO-B) (Homo sapiens, UniProt P27338); assay: hMAO-B inhibition, MAO-Glo chemiluminescent assay; assay type: biochemical; conditions: mean ± SD of triplicate experiments
T2 sequence (P27338 1-520): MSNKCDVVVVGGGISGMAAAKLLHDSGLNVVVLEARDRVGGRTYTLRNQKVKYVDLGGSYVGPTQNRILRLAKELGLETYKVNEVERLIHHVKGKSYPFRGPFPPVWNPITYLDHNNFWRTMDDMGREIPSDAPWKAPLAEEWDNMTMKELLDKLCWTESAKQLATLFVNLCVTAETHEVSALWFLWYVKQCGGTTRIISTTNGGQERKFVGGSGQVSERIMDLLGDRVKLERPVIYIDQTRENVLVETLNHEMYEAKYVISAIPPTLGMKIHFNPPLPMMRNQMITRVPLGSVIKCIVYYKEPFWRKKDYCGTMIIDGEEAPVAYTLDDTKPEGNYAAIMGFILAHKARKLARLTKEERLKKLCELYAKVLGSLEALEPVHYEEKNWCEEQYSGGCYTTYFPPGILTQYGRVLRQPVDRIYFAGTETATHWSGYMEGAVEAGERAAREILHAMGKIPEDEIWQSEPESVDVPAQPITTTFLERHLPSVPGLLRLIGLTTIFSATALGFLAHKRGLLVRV

[3] = target: T2, recombinant human monoamine oxidase B (hMAO-B); assay: hMAO-B enzyme kinetics (Lineweaver-Burk, Dixon, secondary plots); assay type: biochemical; conditions: for Ki: hMAO-B, from secondary plots; for Inhibition Type, hMAO-B: Lineweaver-Burk and Dixon plots
[4] = target: T3, human M2 muscarinic acetylcholine receptor (hM2R) (Homo sapiens, UniProt P08172); assay: M2 (h) functional GPCR assay, agonist effect, cAMP HTRF; assay type: cell-based; conditions: 100 µM; % of control response to 3-µM acetylcholine; CHO cells
T3 construct: host or cells: CHO cells
T3 sequence (P08172 1-466): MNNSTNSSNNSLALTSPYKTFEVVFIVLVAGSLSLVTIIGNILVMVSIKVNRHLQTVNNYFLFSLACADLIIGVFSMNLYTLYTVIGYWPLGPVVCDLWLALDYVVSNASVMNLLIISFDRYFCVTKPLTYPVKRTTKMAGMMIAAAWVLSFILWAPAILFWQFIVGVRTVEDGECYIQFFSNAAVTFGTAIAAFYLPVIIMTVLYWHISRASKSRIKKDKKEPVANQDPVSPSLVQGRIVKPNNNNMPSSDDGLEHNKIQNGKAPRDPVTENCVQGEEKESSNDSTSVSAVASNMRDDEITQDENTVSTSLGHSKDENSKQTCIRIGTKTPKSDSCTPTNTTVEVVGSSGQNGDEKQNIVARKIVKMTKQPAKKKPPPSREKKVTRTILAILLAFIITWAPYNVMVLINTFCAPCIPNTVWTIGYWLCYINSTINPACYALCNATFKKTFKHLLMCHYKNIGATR

[5] = target: T4, human M4 muscarinic acetylcholine receptor (hM4R) (Homo sapiens, UniProt P08173); assay: M4 (h) functional GPCR assay, agonist effect, cAMP HTRF; assay type: cell-based; conditions: 100 µM; % of control response to 1-µM acetylcholine; CHO cells
T4 construct: host or cells: CHO cells
T4 sequence (P08173 1-479): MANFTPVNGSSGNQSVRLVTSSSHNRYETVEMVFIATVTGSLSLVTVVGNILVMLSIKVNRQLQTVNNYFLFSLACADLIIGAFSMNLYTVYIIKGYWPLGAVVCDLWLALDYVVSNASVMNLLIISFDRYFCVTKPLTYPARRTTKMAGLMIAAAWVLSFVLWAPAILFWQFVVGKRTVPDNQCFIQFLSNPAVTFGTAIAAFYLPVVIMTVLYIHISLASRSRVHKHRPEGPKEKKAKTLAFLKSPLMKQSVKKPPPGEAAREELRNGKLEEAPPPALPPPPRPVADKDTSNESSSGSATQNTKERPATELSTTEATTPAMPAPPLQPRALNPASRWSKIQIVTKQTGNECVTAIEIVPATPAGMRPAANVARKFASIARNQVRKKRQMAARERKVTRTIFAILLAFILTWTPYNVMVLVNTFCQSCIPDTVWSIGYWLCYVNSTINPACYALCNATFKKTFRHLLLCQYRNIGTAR

[6] = design: method as in PMID 31943245; conditions: rats, cited from earlier work

In the case of `Cc1coc2c1C(=O)C(=O)c1c-2ccc2c(C)cccc12` [Tanshinone I], the IC50 ([1]; IC50, hMAO-A, mean ± SD of triplicate experiments) is reported as < 10 µM and 2.62 µM, the “SI (selectivity index)” value ([1]; ratio of the IC50 value for hMAO-A inhibition to that for hMAO-B inhibition) is reported as 0.11 and the IC50 [2] is reported as 24.9 ± 3.82 µM. For the same molecule, the Ki ([3]; Kic) was 25.6 ± 1.1 µM, the Ki ([3]; Kiu) was 17.4 ± 0.78 µM and the “Inhibition Type, hMAO-B” value [3] was “Mixed”. For the same molecule, the “Inhibition Type, hMAO-B” value ([3]; listed as 1) was “mixed mode of inhibition”, the “% Stimulation, M2” value [4] was 12.6 ± 3.61% and the “% Stimulation, M4” value [5] was −23.5 ± 1.48%. The tissue distribution ([6]; after oral administration) was “distribution of 1 into the brain” and the half-life ([6]; oral administration, among tanshinones 1, 2, 3, and Dtan I) was “most extended half-life”.
